Patent US20260015350A1, “AZAQUINAZOLINE PAN-KRAS INHIBITORS” (Mirati Therapeutics, Inc., priority 2022, published 2026)

Experiments:
KRas^G12R = biological target: T1, KRas^G12R (Homo sapiens, UniProt P01116, G12R); test: KRas binding assay (TR-FRET tracer displacement), KRas G12R
T1 construct: Biotinylated KRas (corresponding to amino acids 1-169, produced at Accelegan Inc.); biotin (biotinylated); purchased Accelegan Inc

[1] = test system: KRas-mediated phosphorylation of ERK in H727 cells; test: Inhibition of KRas-mediated phosphorylation of ERK (Cisbio HTRF pERK), H727 cells; type: cell-based; settings: Homo sapiens; for IC50: NCI-H727, H727 cells, HTRF pERK; for inhibition at 0.1 µM: NCI-H727, 3 h, single point, 100 nM compound, 3 hrs, H727 cells
Procedure, shortened: (§1)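 Following a 3-hr exposure of cells to serially diluted compound (from 10 uM, 3-fold, 10 doses), cold lysis for 40 mins preceded a 2-hr room-temperature HTRF immunoassay for phosphorylated ERK.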

[2] = test system: KRas-mediated phosphorylation of ERK in H358 cells; test: Inhibition of KRas-mediated phosphorylation of ERK (Cisbio HTRF pERK), H358 cells; type: cell-based; settings: Homo sapiens; for inhibition at 0.1 µM: NCI-H358, 3 h, single point, 100 nM compound, 3 hrs; for IC50: NCI-H358, HTRF pERK
Description: (§2) Inhibition of KRas Phosphorylation of ERK (HTRF) by Exemplary Compounds of Formula (I) Cisbio HTRF Advanced PERK Assay Catalog #64[…] […] Add 10 mL of media to stop trypsinizing. Pipette the cells into a conical bottom 50 mL centrifuge tube and centrifuge 5 min×1000 rpm. […] Re-suspend the cell pellet in media, take a cell count, and then adjust the cell density using fresh media. […] Seed 6,000 cells into cell culture plate with 50 μL media. […] Use Tecan to complete the compound addition. Compounds start from 10 uM top, 3-fold dilution, and 10 doses. The final DMSO concentration is 0.8%. Dispensed 0.2 uM Trametinib as Min control. […] Incubate cell plate for 3 hrs in the incubator. […] Dilute 1 volume of 4× lysis buffer with 3 volumes of deionized water. […] Keep lysis buffer on the ice. […] At the end of the compound treatment, flick-off the media. […] Add 35 μL of lysis buffer per well using a Multidrop Combi. Then place on a plate agitator shaking at 300 rpm at 4° C. for 40 mins. […] Make up the HTRF antibody buffer. For each assay plate, mix 50 μL of d2-conjugate antibody with 950 μL of detection buffer. Similarly, mix 50 μL of Cryptate antibody with 950 μL of detection buffer. Then mix the two diluted antibodies together. […] Dispense 3.4 μL the antibody buffer to wells of an empty assay plate. Seal the plate and centrifuge plate 30 sec×1000 rpm. […] At the end of the 4° C. lysis, centrifuge the lysate plates 3 mins×1500 rpm. […] Use the Bravo to transfer 13.6 μL of lysate from cell culture plate to assay plate. Then incubate assay plate for 2 hrs at room temperature. 8. At the end of incubation, read plate on the Envision after centrifuging plate 30 sec×1000 rpm.

KRas^G12V = biological target: T2, KRas^G12V (Homo sapiens, UniProt P01116, G12V); test: KRas binding assay (TR-FRET tracer displacement), KRas G12V
T2 construct: Biotinylated KRas (corresponding to amino acids 1-169, produced at Accelegan Inc.); biotin (biotinylated); purchased Accelegan Inc
T2 sequence (P01116 1-169 isoform P01116-2 G12V): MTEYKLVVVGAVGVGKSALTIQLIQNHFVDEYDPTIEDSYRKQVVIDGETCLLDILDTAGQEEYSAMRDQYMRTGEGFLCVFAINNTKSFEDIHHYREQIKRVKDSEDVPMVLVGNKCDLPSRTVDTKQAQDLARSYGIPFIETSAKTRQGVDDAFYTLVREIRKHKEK

[3] = test system: KRas-mediated phosphorylation of ERK in A549 cells; test: Inhibition of KRas-mediated phosphorylation of ERK (Cisbio HTRF pERK), A549 cells; type: cell-based; settings: Homo sapiens; for inhibition at 0.1 µM: A549, 3 h, single point, 100 nM compound, 3 hrs; for IC50: HTRF pERK
Description: as §2

[4] = test system: KRas-mediated phosphorylation of ERK in AsPC-1 cells; test: Inhibition of KRas-mediated phosphorylation of ERK (Cisbio HTRF pERK), AsPC-1 cells; type: cell-based; settings: Homo sapiens; for IC50: ASPC1, AsPC-1 cells, HTRF pERK; for inhibition at 0.1 µM: ASPC1, 3 h, single point, 100 nM compound, 3 hrs, AsPC-1 cells
Procedure, shortened: as §1

KRas^G12D = biological target: T3, KRas^G12D (Homo sapiens, UniProt P01116, G12D); test: KRas binding assay (TR-FRET tracer displacement), KRas G12D
T3 construct: Biotinylated KRas (corresponding to amino acids 1-169, produced at Accelegan Inc.); biotin (biotinylated); purchased Accelegan Inc
T3 sequence (P01116 1-169 isoform P01116-2 G12D): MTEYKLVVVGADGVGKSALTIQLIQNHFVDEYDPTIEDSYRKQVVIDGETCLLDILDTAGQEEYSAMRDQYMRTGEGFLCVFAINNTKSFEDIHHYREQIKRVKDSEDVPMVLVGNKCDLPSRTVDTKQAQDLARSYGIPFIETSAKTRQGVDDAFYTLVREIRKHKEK

[5] = test system: KRas-mediated phosphorylation of ERK in H460 cells; test: Inhibition of KRas-mediated phosphorylation of ERK (Cisbio HTRF pERK), H460 cells; type: cell-based; settings: Homo sapiens; for inhibition at 0.1 µM: NCI-H460, 3 h, single point, 100 nM compound, 3 hrs; for IC50: NCI-H460, HTRF pERK
Description: as §2

[6] = test system: KRas-mediated phosphorylation of ERK in HCT116 cells; test: Inhibition of KRas-mediated phosphorylation of ERK (Cisbio HTRF pERK), HCT116 cells; type: cell-based; settings: Homo sapiens; for inhibition at 0.1 µM: HCT-116, 3 h, single point, 100 nM compound, 3 hrs; for IC50: HCT-116, HTRF pERK
Description: as §2

T1 sequence (P01116 1-169 isoform P01116-2 G12R): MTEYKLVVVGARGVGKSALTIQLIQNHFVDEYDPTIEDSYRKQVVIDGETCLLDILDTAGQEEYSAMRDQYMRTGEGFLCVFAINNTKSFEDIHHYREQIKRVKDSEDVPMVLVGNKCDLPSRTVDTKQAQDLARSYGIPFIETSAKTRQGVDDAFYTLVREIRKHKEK

SMILES	IC50 (KRas^G12R) [nM]	IC50 [1] [nM]	inhibition at 0.1 µM [2] [%]	IC50 (KRas^G12V) [nM]	inhibition at 0.1 µM [3] [%]	IC50 [4] [nM]	IC50 (KRas^G12D) [nM]	inhibition at 0.1 µM [5] [%]	inhibition at 0.1 µM [6] [%]	inhibition at 0.1 µM [1] [%]	inhibition at 0.1 µM [4] [%]	IC50 [5] [nM]	IC50 [6] [nM]	IC50 [2] [nM]	IC50 [3] [nM]
CCc1c(F)ccc2cc(O)cc(-c3ncc4c(N5CCCC6(CCC6)C5)nc(OC[C@@]56CCCN5C[C@H](F)C6)nc4c3F)c12 [Example 549, 5-ethyl-6-fluoro-4-(8-fluoro-2-(((2R,7aS)-2-fluorotetrahydro-1H-pyrrolizin-7a(5H)-yl)methoxy)-4-(6-azaspiro[3.5]nonan-6-yl)pyrido[4,3-d]pyrimidin-7-yl)naphthalen-2-ol]	8	208	3	4	-6	328	7								
CCc1c(F)ccc2cc(O)cc(-c3ncc4c(N5CCOCC6(CCO6)C5)nc(OC[C@@]56CCCN5C[C@H](F)C6)nc4c3F)c12 (stereo partly drawn) [Example 573, 5-ethyl-6-fluoro-4-(8-fluoro-2-(((2R,7aS)-2-fluorotetrahydro-1H-pyrrolizin-7a(5H)-yl)methoxy)-4-(1,6-dioxa-9-azaspiro[3.6]decan-9-yl)pyrido[4,3-d]pyrimidin-7-yl)naphthalen-2-ol]		15	94		62	12		92	53						
CCc1c(F)ccc2cc(O)cc(-c3ncc4c(N5CCn6cc(C(=O)N(C)C)nc6C5)nc(OC[C@@]56CCCN5C[C@H](F)C6)nc4c3F)c12 [Example 646, 7-(7-(8-ethyl-7-fluoro-3-hydroxynaphthalen-1-yl)-8-fluoro-2-(((2R,7aS)-2-fluorohexahydro-1H-pyrrolizin-7a-yl)methoxy)pyrido[4,3-d]pyrimidin-4-yl)-N,N-dimethyl-5,6,7,8-tetrahydroimidazo[1,2-a]pyrazine-2-carboxamide]		> 10000	2		-24	8480		-9	-9	-6	-12				
CCc1c(F)ccc2cc(O)cc(-c3ncc4c(N5CCCn6nc(P(C)(C)=O)cc6C5)nc(OC[C@@]56CCCN5C[C@H](F)C6)nc4c3F)c12 [Example 660, (5-(7-(8-ethyl-7-fluoro-3-hydroxynaphthalen-1-yl)-8-fluoro-2-(((2R,7aS)-2-fluorohexahydro-1H-pyrrolizin-7a-yl)methoxy)pyrido[4,3-d]pyrimidin-4-yl)-5,6,7,8-tetrahydro-4H-pyrazolo[1,5-a][1,4]diazepin-2-yl)dimethylphosphine oxide]	2	> 10000	-20	7	-41	8030	2								
CCNC(=O)c1cc2n(n1)CCCCN(c1nc(OC[C@@]34CCCN3C[C@H](F)C4)nc3c(F)c(-c4cc(O)cc5ccc(F)c(CC)c45)ncc13)C2 [Example 673, N-ethyl-5-(7-(8-ethyl-7-fluoro-3-hydroxynaphthalen-1-yl)-8-fluoro-2-(((2R,7aS)-2-fluorotetrahydro-1H-pyrrolizin-7a(5H)-yl)methoxy)pyrido[4,3-d]pyrimidin-4-yl)-4,5,6,7,8,9-hexahydropyrazolo[1,5-a][1,4]diazocine-2-carboxamide]		21	88		43	115		8	16	53	8				
CCc1c(F)ccc2cc3[nH]ncc3c(-c3ncc4c(N5CCCC6(CNS(=O)(=O)N6)C5)nc(OC[C@@]56CCCN5C[C@H](F)C6)nc4c3F)c12 (some centres unmarked) [Example 872]		1210				328						318	636	197	581
CCc1c(F)ccc2cc(O)cc(-c3ncc4c(N5CC6CNCC6C5CO)nc(OC[C@@]56CCCN5C[C@H](F)C6)nc4c3F)c12 (stereo partly drawn) [Example 890, 5-ethyl-6-fluoro-4-(8-fluoro-2-(((2R,7aS)-2-fluorotetrahydro-1H-pyrrolizin-7a(5H)-yl)methoxy)-4-(1-(hydroxymethyl)hexahydropyrrolo[3,4-c]pyrrol-2 (1H)-yl)pyrido[4,3-d]pyrimidin-7-yl)naphthalen-2-ol]		> 10000				> 10000						> 10000	> 10000	> 10000	> 10000
C=C1CN2CCC[C@@]2(COc2nc(N3C[C@@H]4C[C@H](C3)[C@H](O)C4)c3cnc(-c4cc(O)cc5ccc(F)c(CC)c45)c(F)c3n2)C1 [Example 896, (1R,5R,6R)-3-(7-(8-ethyl-7-fluoro-3-hydroxynaphthalen-1-yl)-8-fluoro-2-(((S)-2-methylenetetrahydro-1H-pyrrolizin-7a(5H)-yl)methoxy)pyrido[4,3-d]pyrimidin-4-yl)-3-azabicyclo[3.2.1]octan-6-ol]		2				6								1	1
C=C1CN2CCC[C@]2(COc2nc(N3C[C@@H]4C[C@H](C3)[C@H](O)C4)c3cnc(-c4cc(O)cc5ccc(F)c(CC)c45)c(F)c3n2)C1 [Example 897, (1R,5R,6R)-3-(7-(8-ethyl-7-fluoro-3-hydroxynaphthalen-1-yl)-8-fluoro-2-(((R)-2-methylenetetrahydro-1H-pyrrolizin-7a(5H)-yl)methoxy)pyrido[4,3-d]pyrimidin-4-yl)-3-azabicyclo[3.2.1]octan-6-ol]		12				32								3	5
CCc1c(F)ccc2cc(O)cc(-c3ncc4c(N5CC6CCC(CCC(=O)N(C)C)(C6)C5)nc(OC[C@@]56CCCN5C[C@H](F)C6)nc4c3F)c12 (stereo partly drawn) [Example 913, 3-(3-(7-(8-ethyl-7-fluoro-3-hydroxynaphthalen-1-yl)-8-fluoro-2-(((2R,7aS)-2-fluorotetrahydro-1H-pyrrolizin-7a(5H)-yl)methoxy)pyrido[4,3-d]pyrimidin-4-yl)-3-azabicyclo[3.2.1]octan-1-yl)-N,N-dimethylpropanamide]		571				580						112	211	146	246
CCc1c(F)ccc2cc(O)cc(-c3ncc4c(N5CC6CCC(CC(=O)NC)(C6)C5)nc(OC[C@@]56CCCN5C[C@H](F)C6)nc4c3F)c12 (stereo partly drawn) [Example 914, 2-(3-(7-(8-ethyl-7-fluoro-3-hydroxynaphthalen-1-yl)-8-fluoro-2-(((2R,7aS)-2-fluorotetrahydro-1H-pyrrolizin-7a(5H)-yl)methoxy)pyrido[4,3-d]pyrimidin-4-yl)-3-azabicyclo[3.2.1]octan-1-yl)-N-methylacetamide]	5	1040		3		2380	12							461	
C[C@@]1(O)CCCN(c2nc(OCC34CCCN3CCC4)nc3c(F)c(-c4ccc(F)c5sc(N)c(C#N)c45)ncc23)C1 [Example 916, (R)-2-amino-7-fluoro-4-(8-fluoro-4-(3-hydroxy-3-methylpiperidin-1-yl)-2-((tetrahydro-1H-pyrrolizin-7a(5H)-yl)methoxy)pyrido[4,3-d]pyrimidin-7-yl)benzo[b]thiophene-3-carbonitrile]	132	> 10000		120		> 10000	78							8970	
